This is an account of results in patent US10399989B2, “Pyrazolopyrimidine derivatives as BTK inhibitors for the treatment of cancer” (Loxo Oncology, Inc., priority 2016, dated 2019).

In one experiment the target is BTK^WT (Homo sapiens (Human), UniProt Q06187). In words: BTK^WT binding affinity (TR-FRET, LanthaScreen). As to the method:
BTK^WT binding affinity of each compound tested was determined using a time-resolved fluorescence resonance energy transfer (TR-FRET) methodology. 2.5 nM Recombinant BTK^WT kinase, varying concentrations of inhibitor, 2 nM LanthaScreen™ Eu anti-His Antibody and 15 nM Kinase Tracer 236 was incubated in 1× LanthaScreen™ Kinase Buffer A for 5 h. Recombinant BTK kinase and all LanthaScreen™ components were purchased from Invitrogen. Measurements were performed in a reaction volume of 30 μL using half-area 96-well assay plates. The TR-FRET signal was read on a plate reader with an excitation wavelength of 340 nm and detection wavelengths of 615 and 665 nm. Binding affinity was determined for each compound by measuring TR-FRET signal at various concentrations of compound and plotting the relative fluorescence units against the inhibitor concentration to estimate the IC50 from log [Inhibitor] vs response using the Variable Slope model in Graphpad prism from Graphpad software (SanDiego, Calif.).

The target of the next experiment is BTK^C481S (Homo sapiens (Human), UniProt Q06187, C481S). In words: BTK^C481S binding affinity (TR-FRET, LanthaScreen). As to conditions: 5 h incubation. On the procedure: BTK^C481S binding affinity of each compound tested was determined using a time-resolved fluorescence resonance energy transfer (TR-FRET) methodology. 5 nM Recombinant […] kinase, varying concentrations of inhibitor, 2 nM LanthaScreen™ Eu anti-His Antibody and 30 nM Kinase Tracer 236 was incubated in 1× LanthaScreen™ Kinase Buffer A for 5 h. Recombinant BTK^C481S kinase was purchased from SignalChem and all LanthaScreen™ components were purchased from Invitrogen. Measurements were performed in a reaction volume of 30 μL using half-area 96-well assay plates. The TR-FRET signal was read on a plate reader with an excitation wavelength of 340 nm and detection wavelengths of 615 and 665 nm. Binding affinity was determined for each compound by measuring TR-FRET signal at various concentrations of compound and plotting the relative fluorescence units against the inhibitor concentration to estimate the IC50 from log [Inhibitor] vs response using the Variable Slope model in Graphpad prism from Graphpad software (SanDiego, Calif.).
Chain of BTK^C481S (Q06187 whole entry C481S): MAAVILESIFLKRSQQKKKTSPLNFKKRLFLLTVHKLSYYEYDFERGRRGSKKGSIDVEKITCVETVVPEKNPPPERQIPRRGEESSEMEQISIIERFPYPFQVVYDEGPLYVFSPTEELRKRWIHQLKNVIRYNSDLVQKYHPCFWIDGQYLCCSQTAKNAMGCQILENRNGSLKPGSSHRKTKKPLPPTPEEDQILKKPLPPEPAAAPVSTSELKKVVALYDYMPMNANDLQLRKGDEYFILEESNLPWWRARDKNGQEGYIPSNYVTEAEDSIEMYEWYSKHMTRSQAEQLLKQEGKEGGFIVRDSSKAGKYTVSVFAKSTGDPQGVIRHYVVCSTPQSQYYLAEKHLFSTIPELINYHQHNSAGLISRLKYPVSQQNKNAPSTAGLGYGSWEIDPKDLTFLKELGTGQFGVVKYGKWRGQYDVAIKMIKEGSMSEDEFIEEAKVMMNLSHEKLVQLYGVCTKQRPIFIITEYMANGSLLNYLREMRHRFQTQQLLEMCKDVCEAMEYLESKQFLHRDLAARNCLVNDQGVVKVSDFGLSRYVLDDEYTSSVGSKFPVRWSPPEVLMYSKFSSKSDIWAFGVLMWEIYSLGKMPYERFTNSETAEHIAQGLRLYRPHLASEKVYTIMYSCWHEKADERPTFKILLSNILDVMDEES
(TR-FRET usually uses a lanthanide donor and a delayed reading to cut background.)

The next experiment addresses EGFR (Homo sapiens (Human), UniProt P00533). Nature of the experiment: EGFR binding affinity (TR-FRET, LanthaScreen). Particulars: 5 h incubation. On the procedure:
EGFR binding affinity was determined using a time-resolved fluorescence resonance energy transfer (TR-FRET) methodology. 2.5 nM Recombinant EGFR, varying concentrations of inhibitor, 2 nM LanthaScreen™ Eu anti-GST Antibody and 3 nM Kinase Tracer 199 was incubated in 1× LanthaScreen™ Kinase Buffer A for 5 h. Recombinant EGFR and all LanthaScreen™ components were purchased from Invitrogen. Measurements were performed in a reaction volume of 30 μL using half-area 96-well assay plates. The TR-FRET signal was read on a plate reader with an excitation wavelength of 340 nm and detection wavelengths of 615 and 665 nm. Binding affinity was determined for each compound by measuring TR-FRET signal at various concentrations of compound and plotting the relative fluorescence units against the inhibitor concentration to estimate the IC50 from log [Inhibitor] vs response using the Variable Slope model in Graphpad prism from Graphpad software (SanDiego, Calif.).

Experiment [1] relates to OCI-Ly10 human DLBCL cells. Nature of the experiment: OCI-Ly10 anti-proliferative activity (Resazurin, 72 h). The class given is cell-based. As to conditions: Homo sapiens, OCI-Ly10, 72 h, read-out: Proliferation OCI-Ly10-IC50. On the procedure:
Compounds were assayed for effects on the growth of OCI-Ly10 human DLBCL cells that are dependent on NFκB signalling. OCI-Ly10 cells were grown in suspension in T225 flasks, centrifuged and re-suspended in 2.5% FBS containing media. Cells were then plated at 7.5×10^3 cells per well in 96-well plates in varying concentrations of compound and incubated for 72 h at 37° C. An additional plate of cells to be used as the Day 0 read was seeded without compound addition, Resazurin was added to each well, incubated for 5 h and the fluorescence measured at 590 nm. After 72 h of compound treatment, Resazurin was added to each well of the compound treated plates, incubated for 5 h and the fluorescence measured at 590 nm. The IC50 was then calculated by subtracting the average Day 0 value from each well value from the treated plates, each treatment was then calculated as a percentage of the DMSO control and the percentages plotted against the inhibitor concentration to estimate the IC50 from log [Inhibitor] vs response using the Variable Slope model in Graphpad prism from Graphpad software (SanDiego, Calif.).
(The colour change of resazurin is a common sign of viable cells or microbes.)

The mark [2] stands for this setting: TR-FRET binding, 5 h incubation, read-out: BTK^WT IC50.
Setting [3] is: Table 6, numeric values, read-out: BTK Binding IC50.

SMILES strings stand for the structures. Where two headings read alike, the source gives them in different places. A value given as a limit tells only on which side of the number the result lay.

Chain of EGFR (P00533 25-1210): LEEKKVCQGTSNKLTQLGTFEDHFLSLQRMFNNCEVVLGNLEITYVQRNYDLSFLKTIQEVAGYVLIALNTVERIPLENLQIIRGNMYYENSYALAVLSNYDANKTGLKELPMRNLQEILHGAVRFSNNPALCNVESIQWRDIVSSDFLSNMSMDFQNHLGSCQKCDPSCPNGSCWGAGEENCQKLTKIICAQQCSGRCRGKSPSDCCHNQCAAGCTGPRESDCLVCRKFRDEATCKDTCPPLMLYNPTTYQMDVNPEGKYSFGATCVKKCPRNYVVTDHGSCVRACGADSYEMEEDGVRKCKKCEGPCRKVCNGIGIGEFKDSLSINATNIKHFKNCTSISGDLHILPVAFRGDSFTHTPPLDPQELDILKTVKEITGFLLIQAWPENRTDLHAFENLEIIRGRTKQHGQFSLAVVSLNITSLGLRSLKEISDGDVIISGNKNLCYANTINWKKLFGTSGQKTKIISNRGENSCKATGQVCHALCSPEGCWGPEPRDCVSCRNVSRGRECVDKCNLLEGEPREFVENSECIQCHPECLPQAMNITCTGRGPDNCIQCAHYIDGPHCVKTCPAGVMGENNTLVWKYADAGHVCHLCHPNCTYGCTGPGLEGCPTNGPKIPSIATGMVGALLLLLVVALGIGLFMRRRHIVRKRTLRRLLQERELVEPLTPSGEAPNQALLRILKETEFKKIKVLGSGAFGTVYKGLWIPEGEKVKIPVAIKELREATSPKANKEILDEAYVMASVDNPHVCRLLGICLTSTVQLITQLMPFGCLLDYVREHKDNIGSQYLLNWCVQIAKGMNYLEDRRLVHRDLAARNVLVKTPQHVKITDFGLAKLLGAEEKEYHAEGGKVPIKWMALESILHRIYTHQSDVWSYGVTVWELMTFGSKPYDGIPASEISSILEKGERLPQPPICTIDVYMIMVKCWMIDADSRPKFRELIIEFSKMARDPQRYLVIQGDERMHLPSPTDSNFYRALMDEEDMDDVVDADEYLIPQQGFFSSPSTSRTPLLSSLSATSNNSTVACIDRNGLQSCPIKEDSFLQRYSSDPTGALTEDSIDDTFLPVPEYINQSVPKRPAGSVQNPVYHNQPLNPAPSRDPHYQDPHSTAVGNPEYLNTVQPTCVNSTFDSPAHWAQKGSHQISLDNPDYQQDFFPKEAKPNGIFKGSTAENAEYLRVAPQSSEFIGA
Chain of BTK^WT (Q06187 whole entry): as the sequence (Q06187 whole entry C481S) above, with S481C counted along it

Regarding `COc1ccccc1C(=O)NCc1ccc(-c2nn([C@H]3CC[C@@H](C(=O)N(C)C)CC3)c3ncnc(N)c23)cc1` (single isomer, unassigned; isomer 2) [33-isomer 2], the IC50 at BTK^WT (setting [2]) and at BTK^C481S was not above 10 nM each time.
Consider `Nc1ncnc2c1c(-c1ccc(CNC(=O)c3ccccc3OC(F)(F)F)cc1)nn2C1CCCC1` [Example 6, N-[[4-(4-Amino-1-cyclopentyl-pyrazolo[3,4-d]pyrimidin-3-yl)phenyl]methyl]-2-(trifluoromethoxy)benzamide], for which the IC50 on BTK^WT (setting [2]) and on EGFR was 100 to 1000 nM throughout.
For `COc1ccccc1C(=O)N(C)Cc1ccc(-c2nn(C3CCCC3)c3ncnc(N)c23)cc1` [Example 17, N-[[4-(4-Amino-1-cyclopentyl-pyrazolo[3,4-d]pyrimidin-3-yl)phenyl]methyl]-2-methoxy-N-methyl-benzamide], the IC50 on EGFR fell in the range of 1000 to 10000 nM.
As to `COc1ccccc1C(=O)NCc1ccc(-c2nn(C3CCC4(CC3)OCCO4)c3ncnc(N)c23)cc1` [Example 19, N-[[4-[4-amino-1-(1,4-dioxaspiro[4.5]decan-8-yl)pyrazolo[3,4-d]pyrimidin-3-yl]phenyl]methyl]-2-methoxy-benzamide], the IC50 on BTK^WT (setting [2]) and at BTK^C481S was not above 10 nM each time.
Regarding `N#Cc1cccc(C(=O)NCc2ccc(-c3nn(C4CCCC4)c4ncnc(N)c34)cc2)c1` [Example 20, N-[[4-(4-amino-1-cyclopentyl-pyrazolo[3,4-d]pyrimidin-3-yl)phenyl]methyl]-3-cyano-benzamide], the IC50 at EGFR was in the range of 1000 to 10000 nM.
Same read-out and setting: the value for `COc1c(C)cccc1C(=O)NCc1ccc(-c2nn(C3CCCC3)c3ncnc(N)c23)cc1` [Example 22, N-[[4-(4-amino-1-cyclopentyl-pyrazolo[3,4-d]pyrimidin-3-yl)phenyl]methyl]-2-methoxy-3-methyl-benzamide] was 1000 to 10000 nM.
As for `COc1ccccc1C(=O)NCc1ccc(-c2nn(C3CCC(C(=O)O)CC3)c3ncnc(N)c23)cc1` (stereo not drawn) [Example 30, 4-[4-amino-3-[4-[[(2-methoxybenzoyl)amino]methyl]phenyl]pyrazolo[3,4-d]pyrimidin-1-yl]cyclohexanecarboxylic acid], the IC50 at BTK^WT (setting [2]) was not above 10 nM; on BTK^WT (setting [3]), 1.4 nM; on BTK^C481S, not above 10 nM; at EGFR, 100 to 1000 nM.
For `COc1ccccc1C(=O)NCc1ccc(-c2nn([C@@H]3CCc4ccccc43)c3ncnc(N)c23)cc1` [Example 56, N-[(4-{4-amino-1-[(1R)-2,3-dihydro-1H-inden-1-yl]-1H-pyrazolo[3,4-d]pyrimidin-3-yl}phenyl)methyl]-2-methoxybenzamide], the IC50 is not above 10 nM on BTK^WT (setting [2]), 1.2 nM at BTK^WT (setting [3]) and not above 10 nM at BTK^C481S.
On to `COc1ccccc1C(=O)NC1(c2ccc(-c3nn(C4CCCC4)c4ncnc(N)c34)cc2)CC1` [Example 67, N-[1-[4-(4-amino-1-cyclopentyl-pyrazolo[3,4-d]pyrimidin-3-yl)phenyl]cyclopropyl]-2-methoxy-benzamide], for which the IC50 at BTK^WT (setting [2]), at BTK^C481S and on EGFR was 1000 to 10000 nM in each case.
Turning to `COc1cc2ccccc2cc1C(=O)NCc1ccc(-c2nn(C3CCCC3)c3ncnc(N)c23)cc1` [Example 71, N-[[4-(4-amino-1-cyclopentyl-pyrazolo[3,4-d]pyrimidin-3-yl)phenyl]methyl]-3-methoxy-naphthalene-2-carboxamide], the IC50 at BTK^WT (setting [2]) and on BTK^C481S was 100 to 1000 nM each time.
With `Nc1ncnc2c1c(-c1ccc(CNC(=O)c3ccc4ccccc4c3)cc1)nn2C1CCCC1` [Example 72, N-[[4-(4-amino-1-cyclopentyl-pyrazolo[3,4-d]pyrimidin-3-yl)phenyl]methyl]naphthalene-2-carboxamide], the IC50 on BTK^WT (setting [2]) is 100 to 1000 nM.
Consider `COc1ccccc1C(=O)NCc1c(F)cc(-c2nn(C3CCCC3)c3ncnc(N)c23)cc1F` [Example 73, N-[[4-(4-amino-1-cyclopentyl-pyrazolo[3,4-d]pyrimidin-3-yl)-2,6-difluoro-phenyl]methyl]-2-methoxy-benzamide], for which the IC50 at BTK^WT (setting [2]) lay in the range of 100 to 1000 nM; on BTK^C481S, 10 to 100 nM; at EGFR, 1000 to 10000 nM.
The like results for `COc1ccccc1C(=O)NCc1ccc(-c2nn(C(C)C)c3ncnc(N)c23)cc1` [Example 78, N-[[4-(4-amino-1-isopropyl-pyrazolo[3,4-d]pyrimidin-3-yl)phenyl]methyl]-2-methoxy-benzamide] were, in that order, not above 10 nM, not above 10 nM and 1000 to 10000 nM.
Turning to `COc1ccccc1C(=O)NCc1ccc(-c2nn(C3CCCC3)c3ncnc(N)c23)c(C)c1` [Example 79, N-[[4-(4-amino-1-cyclopentyl-pyrazolo[3,4-d]pyrimidin-3-yl)-3-methyl-phenyl]methyl]-2-methoxy-benzamide], the IC50 at BTK^WT (setting [2]) was not above 10 nM; at BTK^C481S it was not above 10 nM; at EGFR it was 1000 to 10000 nM.
For the molecule `CC(C)(C)n1nc(-c2ccc(CNC(=O)c3cc4ccccc4o3)cc2)c2c(N)ncnc21` [Example 81, N-[[4-(4-amino-1-tert-butyl-pyrazolo[3,4-d]pyrimidin-3-yl)phenyl]methyl]benzofuran-2-carboxamide], the IC50 (on BTK^WT (setting [2]); in experiment [1]) was 1000 to 10000 nM in each case.
In the case of `Nc1ncnc2c1c(-c1ccc(CNC(=O)c3nc4ccccc4s3)cc1)nn2C1CCCC1` [Example 82, N-[[4-(4-amino-1-cyclopentyl-pyrazolo[3,4-d]pyrimidin-3-yl)phenyl]methyl]-1,3-benzothiazole-2-carboxamide], the IC50 on BTK^WT (setting [2]) and on EGFR was more than 10000 nM throughout.
Regarding `Nc1ncnc2c1c(-c1ccc(CNC(=O)c3cc4ccccc4o3)cc1)nn2C1CCCC1` [Example 83, N-[[4-(4-amino-1-cyclopentyl-pyrazolo[3,4-d]pyrimidin-3-yl)phenyl]methyl]benzofuran-2-carboxamide], the IC50 at BTK^WT (setting [2]) was more than 10000 nM.
Still for that read-out and setting: the same measure for `Nc1ncnc2c1c(-c1ccc(CNC(=O)c3cc4ccccc4s3)cc1)nn2C1CCCC1` [Example 84, N-[[4-(4-amino-1-cyclopentyl-pyrazolo[3,4-d]pyrimidin-3-yl)phenyl]methyl]benzothiophene-2-carboxamide]: 1000 to 10000 nM; for `Nc1ncnc2c1c(-c1ccc(CNC(=O)c3ccc4ccccc4n3)cc1)nn2C1CCCC1` [Example 85, N-[[4-(4-amino-1-cyclopentyl-pyrazolo[3,4-d]pyrimidin-3-yl)phenyl]methyl]quinoline-2-carboxamide]: 1000 to 10000 nM.
Consider `Nc1ncnc2c1c(-c1ccc(CNC(=O)C3CNc4ccccc4O3)cc1)nn2C1CCCC1` (stereo not drawn) [Example 86, N-[[4-(4-Amino-1-cyclopentyl-pyrazolo[3,4-d]pyrimidin-3-yl)phenyl]methyl]-3,4-dihydro-2H-1,4-benzoxazine-2-carboxamide], for which the IC50 at BTK^WT (setting [2]) and at BTK^C481S was more than 10000 nM in each case.
For the molecule `Nc1ncnc2c1c(-c1ccc(CNC(=O)c3cccc4ncoc34)cc1)nn2C1CCCC1` [Example 87, N-[[4-(4-amino-1-cyclopentyl-pyrazolo[3,4-d]pyrimidin-3-yl)phenyl]methyl]-1,3-benzoxazole-7-carboxamide], the IC50 at BTK^WT (setting [2]) lay in the range of 1000 to 10000 nM.
With `Nc1ncnc2c1c(-c1ccc(CNC(=O)c3cc4ccccc4[nH]3)cc1)nn2C1CCCC1` [Example 88, N-[[4-(4-amino-1-cyclopentyl-pyrazolo[3,4-d]pyrimidin-3-yl)phenyl]methyl]-1H-indole-2-carboxamide], the IC50 at EGFR was 1000 to 10000 nM.
